US20200123137A1, “DEUTERATED CFTR MODULATORS AND METHODS OF USE” (ABBVIE S.À.R.L., priority 2016, published 2020)
pEC50: −log10 of the molar value.

Legend:
F508delCFTR = F508delCFTR (Homo sapiens, UniProt P13569, DEL508-508); assay: Cell Surface Expression-Horse Radish Peroxidase (CSE-HRP) assay; type: cell-based; conditions: CFBE41o-F508delCFTR-HRP cells
Protocol: A cellular assay for measuring the F508delCFTR cell surface expression after correction with test compounds was developed in human lung derived epithelial cell line (CFBE41o-) (Veit G et al, (2012) Mol Biol Cell. 23(21): 4188-4202). This was achieved by expressing the F508delCFTR mutation along with a horseradish peroxidase (HRP) in the fourth exofacial loop and then measuring the HRP activity using luminescence readout from these cells, CFBE41o-F508delCFTR-HRP, that were incubated overnight with the test corrector compounds. […] Post incubation, the plates were washed 5 x times with Dulbecco's phosphate buffered saline (DPBS), followed by the addition of the HRP substrate, luminol (50 μL), and measuring the HRP activity using luminescence readout on EnVision® Multilabel Plate Reader (Perkin Elmer; product number 2104-0010). The raw counts from the experiment are analyzed using Accelrys® Assay Explorer v3.3. […]
The % activity measured at each of the 8 test concentrations of the test compound was normalized to the on-plate positive control using the following formula: […]
The maximum % activity achieved for the test compound at any tested concentration is presented in Table 1 along with the EC50 calculated using the following general sigmoidal curve with variable Hill slope equation (described as Model 42 in the Accelrys® Assay Explorer v3.3 software): […]

F508del/F508del CFTR = biological target: T1, F508del/F508del CFTR (Homo sapiens, UniProt P13569, DEL508-508); assay: Transepithelial Clamp Circuit (TECC-24) conductance assay on primary human bronchial epithelial cells; type: cell-based; conditions: primary hBE cells F508del/F508del
T1 construct: cells isolated from CF patients with the homozygous mutation; endogenous in cells; host or cells: primary human bronchial epithelial (hBE) cells from F508del/F508del CF patients
Excerpt: A cell based assay using the primary human bronchial epithelial cells (hBE) was used as a secondary assay to test novel F508delCFTR correctors for their activity on primary hBE cells with F508del/F508del CFTR mutation. The assay used a TECC-24 (Transepithelial Clamp Circuit for 24 wells) instrument that measures the functionality of the mutated channel by measuring the equivalent short circuit current (Ieq) generated by the polarized epithelial cells. The instrument works by measuring the transepithelial potential difference (Vt) and transepithelial resistance (Rt) in an open circuit format, and the Ieq is calculated by using Ohms law (Ieq=Vt/Rt). The assay was run in a 24-well format and all 24-wells were measured at the same time point giving a higher throughput for this assay.
Primary human bronchial epithelial (hBE) cells from F508del/F508delCFTR patients were expanded from 1×10^6 to 250×10^6 cells (Neuberger T, Burton B, Clark H and VanGoor F; Cystic Fibrosis, Methods in Mole Biol 741; eds. Amaral M D and Kunzelmann K, 2011). […]
The % activity measured at each of the 6 test concentrations of the test compound was normalized to the on-plate positive control using the following formula: […]

Sequence of F508delCFTR (P13569 with tags, fused parts or gaps DEL508-508): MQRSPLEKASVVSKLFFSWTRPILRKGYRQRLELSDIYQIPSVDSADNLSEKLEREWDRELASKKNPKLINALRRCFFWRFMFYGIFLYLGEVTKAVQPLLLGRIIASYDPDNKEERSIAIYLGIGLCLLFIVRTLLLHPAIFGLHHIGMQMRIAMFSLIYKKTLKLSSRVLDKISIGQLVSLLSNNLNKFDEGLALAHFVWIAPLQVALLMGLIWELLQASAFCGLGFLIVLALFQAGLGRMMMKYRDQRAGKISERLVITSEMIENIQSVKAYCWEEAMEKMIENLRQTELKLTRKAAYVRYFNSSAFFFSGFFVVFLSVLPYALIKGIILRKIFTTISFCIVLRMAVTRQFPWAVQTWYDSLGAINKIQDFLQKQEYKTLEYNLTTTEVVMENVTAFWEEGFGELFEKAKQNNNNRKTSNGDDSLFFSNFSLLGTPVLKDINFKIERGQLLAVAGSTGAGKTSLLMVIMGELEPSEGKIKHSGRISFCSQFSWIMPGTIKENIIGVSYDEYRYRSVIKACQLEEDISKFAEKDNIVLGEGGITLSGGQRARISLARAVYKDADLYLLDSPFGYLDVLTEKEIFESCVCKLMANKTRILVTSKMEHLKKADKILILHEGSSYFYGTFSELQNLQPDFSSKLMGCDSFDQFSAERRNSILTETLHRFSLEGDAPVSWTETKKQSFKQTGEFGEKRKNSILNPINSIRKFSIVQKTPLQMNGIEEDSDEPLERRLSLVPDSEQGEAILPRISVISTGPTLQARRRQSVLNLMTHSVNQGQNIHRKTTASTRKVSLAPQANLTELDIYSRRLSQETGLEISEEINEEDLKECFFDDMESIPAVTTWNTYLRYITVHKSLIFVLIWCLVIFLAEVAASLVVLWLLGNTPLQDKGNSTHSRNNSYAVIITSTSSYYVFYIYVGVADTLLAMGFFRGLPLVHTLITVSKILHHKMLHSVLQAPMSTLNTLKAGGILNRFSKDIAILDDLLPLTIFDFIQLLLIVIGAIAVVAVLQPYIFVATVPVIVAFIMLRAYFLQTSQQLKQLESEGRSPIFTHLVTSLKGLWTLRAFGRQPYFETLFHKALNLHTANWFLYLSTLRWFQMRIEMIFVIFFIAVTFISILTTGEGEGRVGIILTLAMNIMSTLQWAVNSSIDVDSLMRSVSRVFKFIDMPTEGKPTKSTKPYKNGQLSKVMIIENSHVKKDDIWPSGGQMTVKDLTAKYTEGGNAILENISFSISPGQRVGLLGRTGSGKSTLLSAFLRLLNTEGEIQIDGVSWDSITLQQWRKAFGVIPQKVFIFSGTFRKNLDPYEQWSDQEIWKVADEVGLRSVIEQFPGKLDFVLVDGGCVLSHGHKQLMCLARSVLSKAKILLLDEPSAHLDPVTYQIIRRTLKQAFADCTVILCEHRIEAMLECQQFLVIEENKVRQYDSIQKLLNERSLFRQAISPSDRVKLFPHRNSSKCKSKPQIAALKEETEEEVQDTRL
T1 sequence (P13569 with tags, fused parts or gaps DEL508-508): as above

pEC50 (F508delCFTR; F508delCFTR cell surface expression, 18-24 hours at 33° C., luminescence readout): 7.57 | Maximum % activity (F508delCFTR; maximum at any tested concentration, normalized to on-plate positive control (3 μM)): 145% | pEC50 (F508del/F508del CFTR; 18-24 hours at 37° C., equivalent short circuit current (Ieq), with control potentiator): 7.89 | Maximum % activity (F508del/F508del CFTR; relative to positive control (0.15 μM) coupled with control potentiator = 100%): 96%
Compound: [2H]c1cc(C(=O)O)cc([2H])c1C1Oc2cc(OC(F)F)c([2H])c([2H])c2C([2H])(NC(=O)C2(c3ccc4c(c3)OC(F)(F)O4)CC2)C1([2H])[2H] [Example 1, 4-[(2R,4R)-4-({[1-(2,2-difluoro-1,3-benzodioxol-5-yl)cyclopropyl]carbonyl}amino)-7-(difluoromethoxy)(3,3,4,5,6-^2H5)-3,4-dihydro-2H-chromen-2-yl](3,5-^2H2)benzoic acid]
